The record followed here is US8153592B2, “Modulating toll-like receptor activity” (Mayo Foundation for Medical Education and Research, priority 2005, dated 2012).

The target of assay [1] is T1, TLR4 (Mus musculus, UniProt Q9JHF9+Q9QUK6).
T1 construct: expressed in transfected cells
T1 sequence (Q9QUK6 26-835): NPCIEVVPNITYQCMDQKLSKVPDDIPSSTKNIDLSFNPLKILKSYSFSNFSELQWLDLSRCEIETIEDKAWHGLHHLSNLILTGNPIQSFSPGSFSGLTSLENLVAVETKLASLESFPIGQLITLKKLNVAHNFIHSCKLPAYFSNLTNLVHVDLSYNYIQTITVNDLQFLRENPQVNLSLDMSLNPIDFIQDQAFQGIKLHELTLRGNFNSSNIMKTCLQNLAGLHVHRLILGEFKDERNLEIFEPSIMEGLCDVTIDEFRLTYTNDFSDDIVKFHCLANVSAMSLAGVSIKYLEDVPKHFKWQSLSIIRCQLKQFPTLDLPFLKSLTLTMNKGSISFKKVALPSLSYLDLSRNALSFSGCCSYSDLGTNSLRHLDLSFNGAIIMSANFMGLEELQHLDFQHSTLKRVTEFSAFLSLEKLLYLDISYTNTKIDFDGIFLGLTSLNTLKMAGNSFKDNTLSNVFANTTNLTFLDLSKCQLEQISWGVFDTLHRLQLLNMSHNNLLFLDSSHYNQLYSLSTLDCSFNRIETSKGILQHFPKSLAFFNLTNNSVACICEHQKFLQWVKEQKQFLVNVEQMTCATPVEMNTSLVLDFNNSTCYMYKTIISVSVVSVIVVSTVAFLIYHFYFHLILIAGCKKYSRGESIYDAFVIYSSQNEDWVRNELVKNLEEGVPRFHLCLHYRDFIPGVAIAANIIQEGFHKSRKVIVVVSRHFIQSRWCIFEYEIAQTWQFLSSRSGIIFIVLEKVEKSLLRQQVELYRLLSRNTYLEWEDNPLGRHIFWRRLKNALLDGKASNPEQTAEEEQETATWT
T1 sequence (Q9JHF9 19-160): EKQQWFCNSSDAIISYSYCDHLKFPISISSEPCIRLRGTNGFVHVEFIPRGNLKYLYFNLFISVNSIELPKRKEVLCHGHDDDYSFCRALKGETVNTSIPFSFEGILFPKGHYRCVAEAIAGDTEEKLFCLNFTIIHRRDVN
Kind of assay: NFκB-luciferase reporter assay in HEK/TLR4(+) cells (Example 1: TLR4 activators, extracellular matrix, elastase). The assay is classed as cell-based, murine. The text has this: HEK 293 cells were stabily transfected with the TLR4 and MD2 or CD14 expression plasmids, each of which encode a component of a complete, functional TLR4 receptor complex (Akira and Takeda, Nat. Rev. Immunol., 4:499-511 (2004)) using Superfect (Qiagen, Valencia, Calif.) following the manufacturer's instructions. TLR4- and MD2- or CD14-expressing HEK 293 cells were obtained by culturing the transfected cells with appropriate antibiotic selection medium and cloning by limiting dilution in the selection medium. HEK 293 cells expressing TLR4, MD2, and CD14 were generated by transfecting HEK 293 cells expressing TLR4 and MD2 with the CD14 expression plasmid and selecting clones using appropriate antibiotic containing medium. Cell lines expressing TLR4 and MD2 and/or CD14 were then maintained in DMEM supplemented with 10% fetal bovine serum and the appropriate selection antibiotics. Control cell lines were transfected with empty expression vectors and incubated in selection conditions as described above.
Activation of NFκB was measured using a NFκB-luciferase reporter assay. HEK 293 cell lines stabily expressing TLR4, MD2, and/or CD14, or control cells were seeded into 24 well tissue culture plates (2×10^5 cells/well) in 1.0 mL DMEM containing 10% fetal bovine serum and penicillin and streptomycin. The cells were allowed to adhere to the culture wells at 37° C. overnight and were then transfected with 0.1 μg pTK Renilla-luciferase and 0.1 μg NFκB-firefly-luciferase using Superfect Transfection Reagent (Qiagen). Following transfection, the cells were washed once with phosphate buffered saline and cultured for 24 hours at 37° C. in 1.0 mL DMEM containing 0.5% fetal bovine serum. After various treatments, the culture medium was aspirated, and the cells were washed once with PBS. The cells were then lysed in 150 μL Passive Lysis Buffer (Promega) with rocking at room temperature for 15 minutes. Renilla- and Firefly-luciferase were assayed simultaneously using Dual-Luciferase Reporter Assay System (Promega) and a TD-20/20 luminometer (Turner Designs, Sunnyvale, Calif.). Activation of NFκB was reported as a ratio of the firefly luciferase activity to the constitutively expressed Renilla luciferase internal control, and as the mean of triplicate wells.
(A reporter such as luciferase makes a cellular process visible.)

In assay [2] the test system is TLR4. Kind of assay: CD86 expression in mouse spleen after intrasplenic injection (immunopathology). The assay is classed as in vivo, mice. As to conditions: mice which lack TLR4 function (ScN), injected into spleen. How it is done:
(§1) TLR4-deficient C57BL/10ScN mice, which have a deletion in chromosome 4 that encompasses the TLR4 gene, were obtained from The National Cancer Institute (Bethesda, Md.). C57BL/10SnJ mice, which have wild type TLR4 and are congenic with C57BL/10ScN were obtained from the Jackson Laboratory (Bar Harbor, Me.).
(§2) Mice were anesthetized, and the spleen was directly visualized through an incision in the lateral abdominal wall. TLR4 activators dissolved in 50 μL of PBS were injected into the spleen as follows. The solutions were injected as a 27 gauge needle was withdrawn along the long axis of the organ. Twelve hours after injection, the spleens were harvested and frozen in liquid nitrogen for analysis of CD86 expression. Studies were performed at twelve hours because preliminary experiments indicated CD86 expression became clearly detectable at this time. Longitudinal tissue sections were prepared from the center of the spleen and stained as described elsewhere (Dempsey et al., Glycobiology, 10:467-475 (2000)) with the following modifications. Secondary detection antibodies were diluted in M.O.M. diluent (Vector Laboratories, Burlingame, Calif.) and preabsorbed with mouse serum (Jackson ImmunoResearch Laboratories, West Grove, Pa.). Fluorescent images were converted to grayscale using SPOT software (Diagnostic Instruments, Sterling Heights, Mich.).

The target of assay [3] is T2, TLR4 (Mus musculus, UniProt Q9QUK6).
T2 construct: Spleens of C57BL/10SnJ mice with wild-type TLR4 (SnJ) were injected with 10 ng LPS; from tissue; host or cells: mouse spleen in vivo (C57BL/10SnJ; control C57BL/10ScN lacks the TLR4 gene)
T2 sequence (Q9QUK6 26-835): T1 sequence (Q9QUK6 26-835)
T2 sequence (Q9JHF9 19-160 partner): T1 sequence (Q9JHF9 19-160)
Described as above. It is filed as in vivo, mice. As to conditions: wild-type TLR4 mice, 12 hours. On the procedure: as §1, §2

Assay [4] has as its target T3, TLR4/MD2 complex (Mus musculus, UniProt Q9JHF9+Q9QUK6).
T3 construct: expressed in transfected cells; host or cells: HEK 293 (HEK/TLR4(+))
T3 sequence (Q9QUK6 26-835): T1 sequence (Q9QUK6 26-835)
T3 sequence (Q9JHF9 19-160): T1 sequence (Q9JHF9 19-160)
Kind of assay: Cell surface expression of TLR4/MD2 on HEK/TLR4(+) cells (flow cytometry). The assay is classed as cell-based, murine. Conditions: HEK/TLR4 cells treated with SDF-1. On the procedure:
FIG. 2. TLR4 signaling is conditioned by extracellular matrix. The impact of extracellular matrix on TLR4 activation was tested in cells cultured in wells coated with extracellular matrix. (A) and (B) Inhibition of NFκB activation by extracellular matrix in HEK/TLR4(+) cells. HEK/TLR4(+) cells were cultured in wells coated with extracellular matrix (ECM) or fibronectin (FN) and transfected with NFκB- and control-luciferase reporter genes. TLR4 signaling in response to increasing amounts of heparan sulfate (A) or LPS (B) was measured six hours after stimulation. […] The cells were tested for cell surface expression of the TLR4/MD2 complex by flow cytometry using monoclonal antibodies specific for that complex. […] (D) and (E) Inhibition of p38 MAP Kinase activation by extracellular matrix in RAW 264 cells. (D) RAW 264.7 murine macrophages were cultured in wells coated with extracellular matrix (ECM) or fibronectin (FN). The cells were stimulated with heparan sulfate (left panel) or LPS (right panel) for the indicated time (minutes), after which the cells were lysed and activated p38 MAPK (phospho p38) was measured by immunoblotting. […] Similar results were obtained for cells stimulated with LPS. The data shown are representative of 3 separate experiments and indicate that activation of TLR4 signaling is inhibited by extracellular matrix.

For assay [5], the target named is T1, TLR4. Kind of assay: NFκB-luciferase reporter assay in HEK/TLR4(+) cells with perturbed CXCR4 (Examples 2 and 3). It is filed as cell-based, murine. On the procedure:
HEK 293 cells (human embryonic kidney cells) from American Type Culture Collection (ATCC) were cultured in DMEM containing 10% fetal bovine serum, penicillin, and streptomycin. […] TLR4/MD2/CD14 expressing HEK 293 cells were selected using appropriate antibiotic selection medium and were then cloned by limiting dilution in the same medium. Control cells were prepared using empty expression vectors and identical transfection and selection procedures.
HEK 293 cell lines stably expressing TLR4/MD2/CD14 were seeded into 24-well tissue culture plates (2×10^5 cells/well) and allowed to adhere at 37° C. overnight. The adherent cells were transfected with 0.1 μg pTK Renilla-luciferase and 0.1 μg NFκB-firefly-luciferase using Superfect Transfection Reagent (Qiagen) and then cultured for 24 hours at 37° C. in 1 mL DMEM containing 0.5% fetal bovine serum. The cells were stimulated as indicated, washed with phosphate buffered saline, and lysed with 150 μL Passive Lysis Buffer (Promega). The amount of Renilla- and Firefly-luciferase in the cell lysates was assayed simultaneously using Dual-Luciferase Reporter Assay System (Promega) and a TD-20/20 lumenometer (Turner Designs, Sunnyvale, Calif.). Activation of NFκB-firefly luciferase reporter activity is given as the ratio of firefly luciferase to the internal control Renilla luciferase activity, determined and expressed as the mean of triplicate wells.

Assay [6] has as its target T4, CXCR4 (Homo sapiens, UniProt P61073).
T4 construct: endogenous in cells; host or cells: Jurkat T cells
The experiment in a line: CXCR4 cell surface level on Jurkat T cells (FACS, internalization of CXCR4). The assay is classed as cell-based. Conditions: 37° C. for 30 minutes. How it is done: To determine if the purified, recombinant [Hisx6]SDF-1 polypeptide activates CXCR4, Jurkat T cells were stimulated (37° C. for 30 minutes) with buffer alone or with buffer containing a synthetic SDF-1 polypeptide or the purified recombinant [Hisx6]SDF-1 polypeptide. Control cells were stimulated with bovine albumin. The treated cells were stained with fluorochrome-labeled anti-CXCR4 antibodies, and the amount of CXCR4 on the cell surface was measured by the intensity of CXCR4 antibody staining using FACS.

T4 sequence (P61073 whole entry): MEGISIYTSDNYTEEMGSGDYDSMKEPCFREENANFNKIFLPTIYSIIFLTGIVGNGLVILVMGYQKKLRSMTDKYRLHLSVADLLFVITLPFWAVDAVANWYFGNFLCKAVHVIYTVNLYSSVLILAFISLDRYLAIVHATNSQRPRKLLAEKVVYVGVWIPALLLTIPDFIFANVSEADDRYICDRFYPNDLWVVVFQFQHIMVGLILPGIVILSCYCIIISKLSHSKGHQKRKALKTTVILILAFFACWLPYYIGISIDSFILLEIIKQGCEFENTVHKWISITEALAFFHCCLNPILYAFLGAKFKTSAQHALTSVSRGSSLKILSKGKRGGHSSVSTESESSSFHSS

As to elastase, the “TLR4 response to elastase” value in assay [1] (cells grown on fibronectin) is recorded as “did not respond to elastase”. For the same substance, the “Increase of TLR4 response to heparan sulfate versus no elastase” value in assay [1] (cells on extracellular matrix, elastase 0.1 U/mL, 1 μg/mL heparan sulfate, 4 hours) was “about 3 fold”. The “TLR4 response without added agonist” value in assay [1] (cells on extracellular matrix, elastase 0.3 U/mL, 4 hours) was “stimulated full TLR4 responses without addition of agonist”. In assay [2], the “Increase in CD86 expression” value is on record as “not observed”. For the same substance, the “Expression of CD86 in splenocytes” value in assay [3] (0.01 U elastase into spleen) is given as “only modestly increased expression of CD86”; in assay [3] (0.1 U elastase alone), “profoundly increased expression of CD86”; in assay [3] (small amount (0.01 U) of elastase along with 1 ng LPS) it was “profoundly increased expression of CD86”.

Regarding heparan sulfate, the “Activation of HEK/TLR4(+) cells (NFκB-luciferase)” value in assay [1] (10 μg/mL heparan sulfate or 10 ng/mL LPS, 6 hours) was “responded both to LPS and heparan sulfate”. Moreover, the “TLR4 response to heparan sulfate” value in assay [1] (cells grown on fibronectin, 1 μg/mL HS, 4 hours) is given as “responded fully to HS”.

Turning to “SDF-1: the agonist for CXCR4; natural ligand polypeptide”, in assay [4], the “Expression of TLR4” value is recorded as “did not alter expression of TLR4”. For the same substance, in assay [5] (HEK/TLR4(+) cells stimulated simultaneously with LPS and 50 nM SDF-1), the “TLR4 activation by LPS (NFκB-luciferase)” value is given as “indifferent to the presence of LPS at any concentration tested”. The “NFκB-luciferase reporter activation by the agent itself” value in assay [5] (HEK/TLR4(+) cells, no LPS) is “slight activation of the luciferase reporter”.

Regarding “[Hisx6]SDF-1: recombinant, histidine-tagged murine SDF-1 polypeptide produced in E. coli”, the “Amount of CXCR4 on the cell surface” value in assay [6] is “stimulate a decrease in CXCR4 on cell surfaces”.

Turning to pertussis toxin, in assay [5] (HEK/TLR4(+) cells treated with 0.1 μg/mL pertussis toxin), the “TLR4 activation by LPS (NFκB-luciferase)” value is listed as “diminished TLR4 activation by LPS”.
